Measurements from US4753952A, “2-acyl-3-aminomethyl-1,2,3,4-tetrahydroquinolines” (Dr. Lo. Zambeletti S.p.A., priority 1985, dated 1988).
Structures can show the parent of a compound that is named as a salt. Where two headings read alike, the source gives them in different places.

Tests used:
Mouse tail flick = Mouse tail flick test; format: in vivo, mouse (male Charles River); details: s.c., 30 min after dosing, mice doubling the initial reaction time; for ED50: Mus musculus, sc, 0.5 h, read-out: IN VIVO TESTS - ED50, Mouse tail flick
Description: (§1) Inhibition of contraction in electrically stimulated rabbit vas deferens indicate Kappa receptor agonism.
Tail-flick test (Modified from the procedure published by D'Amour et al., J. Pharm. Exptl. Ther. 72, 74/1941)
Male Charles River mice, average weight 26 g, are used. Selection is carried out before beginning of experiments: only mice whose reaction time is less than 8 sec are used. They are randomly distributed into groups of 10 and dosed with compounds under test, with positive and negative controls being included.
Compounds under test are administered subcutaneously in isotonic saline in a volume of 20 ml.Kg^-1. 30 min later mice are placed again under heat source (Socrel apparatus) and reaction time is recorded.
Analgesic activity of the test compound is expressed as the percent number of mice doubling the initial time within a group. [formula]

[1] = system: Mouse p-phenylquinone writhing; test: Mouse p-phenylquinone writhing test; format: in vivo, mouse (male Charles River); details: p-phenylquinone 0.02% i.p. 20 min after dosing, animals completely protected in 8 min; for ED50: Mus musculus, sc, read-out: IN VIVO TESTS - ED50, Mouse p-phenylquinone writhing; for IN VIVO TESTS - ED50, Mouse p-phenylquinone writhing: s.c.
Description: as §1
Writhing test (According to Siegmund et al., Proc. Soc. Exptl. Biol. 95, 729/1957)
Male Charles River mice, average weight 26 g, are randomly distributed into groups of 10 and are dosed subcutaneously with compounds under test, dissolved in isotonic saline (20 ml.Kg^-1). The experiments are carried out in the presence of positive and negative controls. 20 min after the mice are injected intraperitoneally with p-phenylquinone 0.02%, 10 ml.Kg^-1, maintained at 37° C. in a water bath. The mice are placed in a perspex compartmented observation box and observed for a period of 8 min after injection of p-phenylquinone. The dose-response curve is obtained by basing observation on the all or none response.

μ receptor = molecular target: T1, μ receptor (Cavia porcellus, UniProt A0ACM8Q262); test: Radio receptor binding to μ sites (3H-DAGO); details: guinea pig brain homogenate without cerebellum, 25° C., 40 min, pH 7.4
T1 construct: 3H-DAGO (DAMGO) displacement
T1 sequence (A0ACM8Q262 1-400): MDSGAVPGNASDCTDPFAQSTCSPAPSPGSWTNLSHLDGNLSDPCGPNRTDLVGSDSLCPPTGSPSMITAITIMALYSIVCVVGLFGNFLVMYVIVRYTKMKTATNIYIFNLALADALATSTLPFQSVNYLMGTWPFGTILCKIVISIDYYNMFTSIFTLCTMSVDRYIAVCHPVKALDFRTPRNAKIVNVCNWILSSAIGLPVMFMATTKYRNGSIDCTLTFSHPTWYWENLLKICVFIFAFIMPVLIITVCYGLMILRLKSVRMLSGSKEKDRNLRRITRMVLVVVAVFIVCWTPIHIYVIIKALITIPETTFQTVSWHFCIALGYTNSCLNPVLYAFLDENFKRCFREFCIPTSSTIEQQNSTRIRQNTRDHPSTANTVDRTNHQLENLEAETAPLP
Description: Radio receptor binding to μ and k sites is performed on fresh guinea pig brain homogenate prepared according to Kosterlitz. (1981)
(§2) […] brain without cerebellum is homogenized in 50 mM, Tris-buffer (pH 7.4 at 0° C.) and centrifuged at 49,000×g×10 min. The pellet is then resuspended in the same buffer, incubated at 37° C. for 45 min. and centrifuged again.
(§3) 1.9 ml of the final homogenate (1:100 in Tris-pH 7.4, 0° C.) is used for the binding assay.
Binding to μ sites (Magnan J., 1982):
^3 H [D-Ala^2, MePhe^4, Gly-ol^5 ] Enkephalin (^3 H-DAGO), an enkephalin analogue that binds selectively to μ receptor, is added to the biological substrate and incubated at 25° C. for 40 min., filtered through Whatman GF-C and washed with ice-cold Tris-buffer. The filters are then dried, solubilized in Filtercount and the radioactivity monitored. Non specific binding is determined in the presence of 10^-6 M Naloxone.
For the calculation of the kinetic parameters of the binding of labelled and unlabelled ligands, the equilibrium dissociation constant (KD), and the inhibition constant (Ki) and the maximum number of binding sites (B max) are determined from saturation curves and competition experiments (Hill 1910; Scatchard 1949; Cheng and Prusoff 1973; Gillan et al. 1980).
(§4) A concentration of radioligant near KD is used in the binding assays evaluating our compounds.

[2] = molecular target: T2, k (Kappa) opioid receptor (Cavia porcellus, UniProt P41144); test: Radio receptor binding to k sites (tritiated Ethylketocyclazocine); design: species or system guinea pig
T2 construct: fresh guinea pig brain homogenate; from tissue; host or cells: guinea pig whole brain without cerebellum, washed membrane homogenate
T2 sequence (P41144 whole entry): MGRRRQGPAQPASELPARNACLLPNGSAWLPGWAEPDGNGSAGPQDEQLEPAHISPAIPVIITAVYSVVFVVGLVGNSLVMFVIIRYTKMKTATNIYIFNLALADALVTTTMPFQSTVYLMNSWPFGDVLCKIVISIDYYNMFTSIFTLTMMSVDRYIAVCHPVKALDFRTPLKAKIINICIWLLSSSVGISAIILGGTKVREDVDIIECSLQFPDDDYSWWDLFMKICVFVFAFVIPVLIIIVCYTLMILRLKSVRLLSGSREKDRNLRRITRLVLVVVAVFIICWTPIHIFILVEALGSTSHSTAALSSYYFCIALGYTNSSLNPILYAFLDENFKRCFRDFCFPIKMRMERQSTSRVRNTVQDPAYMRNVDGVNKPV
Description: Radio receptor binding to μ and k sites is performed on fresh guinea pig brain homogenate prepared according to Kosterlitz.
as §2, §3
The binding of tritiated Ethylketocyclazocine to brain homogenate is measured in the presence of 100 nanomolar D-Ala-D-LeuEnkephalin (DADLE) and 100 nanomolar DAGO, added to saturate the δ and μ opioid receptors respectively.
Final homogenate with solutions of the cold ligand and of the labelled ligand is incubated for 40 min at 25° C., filtered through Whatman GF/C glass filter discs and washed.
The radioactivity bound to the filters is counted by liquid scintillation spectrophotometry.
as §4

SMILES | ED50 (Mouse tail flick) [mg/kg] | ED50 [1] [mg/kg] | Ki (μ receptor) [nM] | Ki [2] [nM] | IN VIVO TESTS - ED50, Mouse tail flick (Mouse tail flick) | IN VIVO TESTS - ED50, Mouse p-phenylquinone writhing [1] | Ki ([2]; guinea pig brain homogenate without cerebellum, tritiated Ethylketocyclazocine with 100 nM DADLE and 100 nM DAGO, 25° C., 40 min, read-out: RECEPTOR BINDING - Ki, k) [nM]
O=C(Cc1ccc(Cl)c(Cl)c1)N1Cc2ccccc2CC1CN1CCCC1 (racemic) [Example 1, (R,S)-2-(3,4-dichlorophenyl)acetyl-3-(1-pyrrolidinyl)methyl-1,2,3,4-tetrahydroisoquinoline hydrochloride] | 3.12 | 2.64 | 960 | 9.45 |  |  | 
CN(C)CC1Cc2ccccc2CN1C(=O)Cc1ccc(Cl)c(Cl)c1 (racemic) [Example 4, (R,S)-2-(3,4-dichlorophenylacetyl)-3-dimethylaminomethyl-1,2,3,4-tetrahydroisoquinoline hydrochloride] | 7.2 | 3.76 | 1360 | 17.5 |  |  | 
O=C(Cc1ccc(Cl)c(Cl)c1)N1Cc2ccccc2C[C@@H]1CN1CCCC1 [Example 2, (R)-2-(3,4-dichlorophenyl)acetyl-3-(1-pyrrolidinyl)methyl-1-2,3,4-tetrahydroisoquinoline hydrochloride] |  |  | 1420 | > 1 | N.E. | N.E. | 
O=C(Cc1ccc(Cl)c(Cl)c1)N1Cc2ccccc2C[C@H]1CN1CCCC1 [Example 3, (S)-2-(3,4-dichlorophenyl)acetyl-3-(1-pyrrolidinyl)methyl-1,2,3,4-tetrahydroisoquinoline hydrochloride] | 1.58 | 1.43 | 764 | 8.03 |  |  | 
CN(C)C[C@H]1Cc2ccccc2CN1C(=O)Cc1ccc(Cl)c(Cl)c1 [Example 5, (R)-2-(3,4-dichlorophenyl)acetyl-3-dimethylaminomethyl-1,2,3,4-tetrahydroisoquinoline hydrochloride] |  |  | 2560 |  | N.E. | N.E. | 637
CN(C)C[C@@H]1Cc2ccccc2CN1C(=O)Cc1ccc(Cl)c(Cl)c1 [Example 6, (S)-2-(3,4-dichlorophenylacetyl)-3-dimethylaminomethyl-1,2,3,4-tetrahydroisoquinoline hydrochloride] | 1.65 | 2.05 | 1080 | 11 |  |  | 
